Data from ChEMBL document CHEMBL1201862, “PubChem BioAssay data set” (2004).
Calls of active or inactive are those of the source.

Columns and labels:
[1] = biological target: T1, Polyadenylate-binding protein 1 (Homo sapiens, UniProt P11940); experiment: PABP1 MLLE–PAM2 binding inhibitor potency, dose response, biochemical, fluorescence polarization, FITC-PAM2 peptide (AID 602259); type: functional; settings: read-out: IC50_Mean
[2] = biological target: T1, Polyadenylate-binding protein 1; experiment: PABP1 MLLE–PAM2 interaction inhibitors, dose response, miRNA deadenylation inhibitor project, biochemical, fluorescence polarization, Cy5-PAM2 peptide, secondary (AID 602260); type: functional; settings: read-out: IC50_Mean
Protein Wnt-3a = Protein Wnt-3a (Mus musculus, UniProt P27467); experiment: Wnt3a-driven reporter signaling inhibition, dose response, selectivity assay for Gli-SUFU antagonist project, Wnt-LIGHT cells, luminescence (AID 651570); type: functional; settings: read-out: IC50_Mean;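 also: Wnt-LIGHT reporter cells stimulated with conditioned medium from Wnt3a-producing cells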
Chain of Protein Wnt-3a (P27467 whole entry): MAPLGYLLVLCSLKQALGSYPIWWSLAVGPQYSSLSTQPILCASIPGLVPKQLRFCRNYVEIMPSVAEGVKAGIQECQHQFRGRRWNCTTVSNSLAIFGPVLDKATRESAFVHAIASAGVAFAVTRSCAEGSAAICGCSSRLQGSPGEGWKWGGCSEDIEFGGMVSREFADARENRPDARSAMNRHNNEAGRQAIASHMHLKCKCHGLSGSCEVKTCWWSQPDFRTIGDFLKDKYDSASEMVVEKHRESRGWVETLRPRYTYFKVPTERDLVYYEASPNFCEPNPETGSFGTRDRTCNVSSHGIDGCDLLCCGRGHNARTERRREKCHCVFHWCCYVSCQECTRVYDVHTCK

[3] = biological target: Adenosylmethionine-8-amino-7-oxononanoate aminotransferase (Mycobacterium tuberculosis, UniProt P9WQ81); experiment: Mycobacterium tuberculosis BioA enzyme inhibitor Measured in Biochemical System Using Plate Reader - 2163-02_Inhibitor_Dose_CherryPick_Activity.; type: functional, Mycobacterium tuberculosis UT205
Chain of Adenosylmethionine-8-amino-7-oxononanoate aminotransferase (P9WQ81 whole entry): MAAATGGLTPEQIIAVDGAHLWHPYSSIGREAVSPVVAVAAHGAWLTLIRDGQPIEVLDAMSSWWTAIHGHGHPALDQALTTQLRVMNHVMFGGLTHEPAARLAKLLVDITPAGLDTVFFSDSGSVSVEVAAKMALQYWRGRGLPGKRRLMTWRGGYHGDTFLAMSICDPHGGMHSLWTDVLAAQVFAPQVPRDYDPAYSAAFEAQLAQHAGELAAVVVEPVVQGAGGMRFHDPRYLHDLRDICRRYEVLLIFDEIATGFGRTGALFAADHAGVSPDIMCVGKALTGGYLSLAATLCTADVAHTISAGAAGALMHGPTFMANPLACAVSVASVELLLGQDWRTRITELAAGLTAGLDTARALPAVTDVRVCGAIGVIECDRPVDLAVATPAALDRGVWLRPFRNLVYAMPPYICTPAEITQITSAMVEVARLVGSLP

[4] = biological target: T2, Sentrin-specific protease 8 (Homo sapiens, UniProt Q96LD8); type: functional;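 also: luminescence read-out of SENP8 inhibition, dose-response confirmation following an ultra-high-throughput screen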
T2 sequence (Q96LD8 whole entry): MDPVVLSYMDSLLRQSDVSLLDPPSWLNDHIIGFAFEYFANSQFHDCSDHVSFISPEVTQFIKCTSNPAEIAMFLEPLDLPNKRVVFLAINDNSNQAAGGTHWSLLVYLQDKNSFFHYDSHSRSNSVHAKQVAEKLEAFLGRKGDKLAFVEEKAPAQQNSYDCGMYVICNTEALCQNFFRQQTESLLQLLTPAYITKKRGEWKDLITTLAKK

[5] = biological target: T3, Sentrin-specific protease 7 (Homo sapiens, UniProt Q9BQF6); type: functional;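 also: Luminescence-based dose-response confirmation of ultra-high-throughput screening hits, measuring inhibition of SENP7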
T3 sequence (Q9BQF6 whole entry): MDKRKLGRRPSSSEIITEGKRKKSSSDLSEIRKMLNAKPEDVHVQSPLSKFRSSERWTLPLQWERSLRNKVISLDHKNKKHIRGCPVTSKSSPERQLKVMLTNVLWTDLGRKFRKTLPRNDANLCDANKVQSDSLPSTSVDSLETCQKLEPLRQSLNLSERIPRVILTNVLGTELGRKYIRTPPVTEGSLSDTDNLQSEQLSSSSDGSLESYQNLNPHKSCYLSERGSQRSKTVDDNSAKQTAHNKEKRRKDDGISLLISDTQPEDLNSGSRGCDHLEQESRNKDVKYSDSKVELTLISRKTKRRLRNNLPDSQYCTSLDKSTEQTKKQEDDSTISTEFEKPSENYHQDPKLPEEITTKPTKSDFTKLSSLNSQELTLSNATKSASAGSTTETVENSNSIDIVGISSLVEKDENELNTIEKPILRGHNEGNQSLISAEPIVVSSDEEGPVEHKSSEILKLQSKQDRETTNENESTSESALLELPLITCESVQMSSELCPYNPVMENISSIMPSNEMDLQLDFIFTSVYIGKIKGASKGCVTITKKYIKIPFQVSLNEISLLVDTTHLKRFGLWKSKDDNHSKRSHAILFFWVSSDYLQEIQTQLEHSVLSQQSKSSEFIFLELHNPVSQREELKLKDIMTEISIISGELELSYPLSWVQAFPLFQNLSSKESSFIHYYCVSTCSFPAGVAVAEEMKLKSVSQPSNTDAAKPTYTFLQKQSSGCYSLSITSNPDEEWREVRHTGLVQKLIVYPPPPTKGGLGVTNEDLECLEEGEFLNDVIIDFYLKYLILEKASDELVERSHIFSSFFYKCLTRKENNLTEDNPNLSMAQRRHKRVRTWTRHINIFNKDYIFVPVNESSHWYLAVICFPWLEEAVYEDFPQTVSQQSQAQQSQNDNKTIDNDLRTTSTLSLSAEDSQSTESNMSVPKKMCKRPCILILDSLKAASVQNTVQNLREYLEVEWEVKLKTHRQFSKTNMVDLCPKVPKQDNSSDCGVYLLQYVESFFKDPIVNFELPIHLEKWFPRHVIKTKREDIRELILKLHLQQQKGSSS

Caspase-3 = biological target: T4, Caspase-3 (Homo sapiens, UniProt P42574); type: functional;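 also: Dose-response selectivity test against caspase-3 for candidate inhibitors of sentrin-specific proteases (SENPs)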
T4 sequence (P42574 whole entry): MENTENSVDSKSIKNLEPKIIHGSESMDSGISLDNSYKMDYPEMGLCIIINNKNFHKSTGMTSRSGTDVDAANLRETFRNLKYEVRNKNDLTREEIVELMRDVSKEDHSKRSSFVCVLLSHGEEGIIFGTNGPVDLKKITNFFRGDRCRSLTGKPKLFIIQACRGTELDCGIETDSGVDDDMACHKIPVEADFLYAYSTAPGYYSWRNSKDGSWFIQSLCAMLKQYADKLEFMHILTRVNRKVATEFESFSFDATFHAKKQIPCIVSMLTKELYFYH

[6] = biological target: T5, Sentrin-specific protease 6 (Homo sapiens, UniProt Q9GZR1); type: functional;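 also: Luminescence-based dose-response confirmatory assay of SENP6 inhibition, following up an ultra-high-throughput screen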
T5 sequence (Q9GZR1 whole entry): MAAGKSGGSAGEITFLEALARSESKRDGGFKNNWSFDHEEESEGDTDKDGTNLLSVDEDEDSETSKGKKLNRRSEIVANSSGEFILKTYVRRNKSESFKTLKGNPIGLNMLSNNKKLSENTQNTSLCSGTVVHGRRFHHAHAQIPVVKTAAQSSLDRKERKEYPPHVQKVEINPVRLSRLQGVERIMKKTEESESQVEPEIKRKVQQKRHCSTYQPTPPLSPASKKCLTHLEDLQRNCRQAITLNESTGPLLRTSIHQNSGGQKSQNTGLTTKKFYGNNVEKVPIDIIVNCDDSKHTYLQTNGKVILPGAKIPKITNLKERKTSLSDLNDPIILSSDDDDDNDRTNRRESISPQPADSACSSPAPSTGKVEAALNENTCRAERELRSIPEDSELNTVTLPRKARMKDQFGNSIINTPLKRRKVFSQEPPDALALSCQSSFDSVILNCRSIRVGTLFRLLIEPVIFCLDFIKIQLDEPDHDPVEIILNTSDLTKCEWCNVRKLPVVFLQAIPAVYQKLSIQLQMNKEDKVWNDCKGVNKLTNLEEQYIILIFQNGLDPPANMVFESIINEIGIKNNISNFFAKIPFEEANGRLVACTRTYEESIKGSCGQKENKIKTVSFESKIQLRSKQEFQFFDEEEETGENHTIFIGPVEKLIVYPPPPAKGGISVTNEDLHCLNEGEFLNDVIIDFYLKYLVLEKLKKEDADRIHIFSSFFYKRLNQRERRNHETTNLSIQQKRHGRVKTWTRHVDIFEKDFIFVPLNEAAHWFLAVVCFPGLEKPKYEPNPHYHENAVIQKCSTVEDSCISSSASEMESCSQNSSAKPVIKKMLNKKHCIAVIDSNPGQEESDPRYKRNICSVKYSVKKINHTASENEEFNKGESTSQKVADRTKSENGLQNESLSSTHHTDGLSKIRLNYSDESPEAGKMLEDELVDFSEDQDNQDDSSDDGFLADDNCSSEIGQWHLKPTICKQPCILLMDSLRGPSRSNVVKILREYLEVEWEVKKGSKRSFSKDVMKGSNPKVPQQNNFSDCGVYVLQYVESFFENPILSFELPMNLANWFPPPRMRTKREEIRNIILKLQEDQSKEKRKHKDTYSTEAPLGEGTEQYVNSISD

Streptococcus = experiment: Group A Streptococcus viability loss, dose response, counter-screen for streptokinase expression inhibitor project, luminescence, BacTiterGlo (AID 1915); type: functional, organism-based;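 also: potency for reduction of bacterial viability or growth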
Streptokinase A = biological target: T6, Streptokinase A (Streptococcus pyogenes serotype M1, UniProt P10520); experiment: S. pyogenes streptokinase expression inhibitors, potency, dose response, plasminogen activation absorbance, OD405 (AID 1914); type: functional, Streptococcus pyogenes M1 GAS;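 also: secreted streptokinase activity via plasminogen activation per viability signal from cell pellet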
T6 sequence (P10520 whole entry): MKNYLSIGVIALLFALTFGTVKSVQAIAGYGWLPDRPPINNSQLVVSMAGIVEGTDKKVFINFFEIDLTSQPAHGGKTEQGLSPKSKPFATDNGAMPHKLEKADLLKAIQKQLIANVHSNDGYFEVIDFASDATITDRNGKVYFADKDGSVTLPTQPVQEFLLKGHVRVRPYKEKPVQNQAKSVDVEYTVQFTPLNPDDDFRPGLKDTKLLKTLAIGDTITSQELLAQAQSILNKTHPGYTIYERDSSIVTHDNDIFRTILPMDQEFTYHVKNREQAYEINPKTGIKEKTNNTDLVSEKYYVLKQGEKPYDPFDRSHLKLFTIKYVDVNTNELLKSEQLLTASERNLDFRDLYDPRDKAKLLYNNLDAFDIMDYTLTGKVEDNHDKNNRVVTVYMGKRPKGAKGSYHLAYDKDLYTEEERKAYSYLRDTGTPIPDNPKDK

[7] = test system: Streptococcus sp. 'group A'; experiment: growth inhibition of control SK(-) GAS strain, dose response, counter-screen for streptokinase expression inhibitor project, luminescence, kanamycin, BacTiterGlo, confirmation (AID 1900); type: functional, organism-based
[8] = biological target: Nuclear receptor subfamily 5 group A member 2 (Homo sapiens, UniProt O00482); type: functional, cell-based;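 also: HEK293T cells transfected with LRH-1 and a StAR promoter luciferase reporter; potency for inhibitors that lower LRH-1 driven reporter light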
Chain of Nuclear receptor subfamily 5 group A member 2 (O00482 whole entry): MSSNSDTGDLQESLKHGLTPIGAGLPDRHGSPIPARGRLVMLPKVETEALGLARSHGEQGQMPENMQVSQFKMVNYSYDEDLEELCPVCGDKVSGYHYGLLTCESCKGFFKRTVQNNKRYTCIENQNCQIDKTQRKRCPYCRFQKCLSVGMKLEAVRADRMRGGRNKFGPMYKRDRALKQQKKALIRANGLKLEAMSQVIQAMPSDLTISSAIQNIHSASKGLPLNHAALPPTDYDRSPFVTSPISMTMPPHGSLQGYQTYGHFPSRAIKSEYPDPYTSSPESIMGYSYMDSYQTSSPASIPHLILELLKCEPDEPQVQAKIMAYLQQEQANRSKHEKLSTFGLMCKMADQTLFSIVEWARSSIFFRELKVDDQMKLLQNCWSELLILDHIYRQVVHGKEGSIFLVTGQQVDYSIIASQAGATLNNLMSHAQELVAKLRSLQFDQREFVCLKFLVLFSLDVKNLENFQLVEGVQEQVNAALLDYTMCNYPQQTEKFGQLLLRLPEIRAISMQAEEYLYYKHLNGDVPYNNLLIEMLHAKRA

Steroidogenic factor 1 = Steroidogenic factor 1 (Homo sapiens, UniProt Q13285); experiment: Counterscreen for inverse agonists of the liver receptor homolog-1 (LRH-1; NR5A2): Luminescence-based cell-based high throughput dose response assay to identify inverse agonists of the Steroidogenic Factor 1 Nuclear Receptor (SF1; NR5A1).; type: functional
Chain of Steroidogenic factor 1 (Q13285 whole entry): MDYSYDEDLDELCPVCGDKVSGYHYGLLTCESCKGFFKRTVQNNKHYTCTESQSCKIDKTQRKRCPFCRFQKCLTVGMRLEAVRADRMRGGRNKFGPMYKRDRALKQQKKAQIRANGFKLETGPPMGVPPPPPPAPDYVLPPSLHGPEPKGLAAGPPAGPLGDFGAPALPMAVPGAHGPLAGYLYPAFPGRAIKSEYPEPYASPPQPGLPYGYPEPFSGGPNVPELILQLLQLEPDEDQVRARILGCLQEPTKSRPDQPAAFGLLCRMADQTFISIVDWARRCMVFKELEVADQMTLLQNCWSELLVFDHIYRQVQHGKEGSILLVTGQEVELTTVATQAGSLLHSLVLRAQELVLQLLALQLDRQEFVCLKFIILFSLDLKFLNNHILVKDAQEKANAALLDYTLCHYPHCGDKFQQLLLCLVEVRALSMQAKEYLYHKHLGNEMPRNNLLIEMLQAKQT

[9] = StAR promoter reporter inhibition counter-screen, dose response, counter-screen for LRH-1 inverse agonist project, cell-based, luminescence, luciferase reporter (AID 651969); type: functional

T1 sequence (P11940 whole entry): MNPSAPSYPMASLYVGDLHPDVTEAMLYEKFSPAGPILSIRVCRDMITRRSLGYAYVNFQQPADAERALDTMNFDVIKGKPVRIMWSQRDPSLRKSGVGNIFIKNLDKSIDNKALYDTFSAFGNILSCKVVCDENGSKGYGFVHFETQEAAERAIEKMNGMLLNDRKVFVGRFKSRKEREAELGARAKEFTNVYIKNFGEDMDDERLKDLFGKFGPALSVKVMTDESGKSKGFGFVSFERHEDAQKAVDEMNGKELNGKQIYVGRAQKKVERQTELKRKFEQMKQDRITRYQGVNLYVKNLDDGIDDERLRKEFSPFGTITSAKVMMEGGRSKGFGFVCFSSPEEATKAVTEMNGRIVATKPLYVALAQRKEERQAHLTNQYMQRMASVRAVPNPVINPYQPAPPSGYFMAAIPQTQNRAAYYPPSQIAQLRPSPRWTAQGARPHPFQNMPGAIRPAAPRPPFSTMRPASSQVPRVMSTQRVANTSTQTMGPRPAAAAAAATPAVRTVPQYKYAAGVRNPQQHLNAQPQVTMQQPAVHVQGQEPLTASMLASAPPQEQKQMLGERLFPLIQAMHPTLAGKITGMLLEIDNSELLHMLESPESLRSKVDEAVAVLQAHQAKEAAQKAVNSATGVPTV

C=CCNC(=S)N/N=C(\C)c1cccc(OC)c1
IC50 [1]: > 66 µM (inactive) | IC50 [2]: > 66 µM (inactive)

CCOc1ccc(NS(=O)(=O)c2cccc(C(=O)N3CCN(C/C=C/c4ccccc4)CC3)c2)cc1
IC50 (Protein Wnt-3a): 22.7 µM (inactive)

CNC(=O)C[C@H]1CC[C@@H]2[C@H](COC[C@@H](O)CN2C(=O)Nc2ccc(Cl)c(Cl)c2)O1
AC50 [3]: 1.88 µM (active)

O=C(O)c1cccc(NC(=O)c2ccc(COc3ccc(Cl)cc3)cc2)c1
IC50 [4]: 41 µM (active) | IC50 [5]: 21.8 µM (active) | IC50 (Caspase-3): > 100 µM (inactive) | IC50 [6]: 16.7 µM (active)

Cc1n[nH]c(Nc2ccc(C(C)C)cc2)c1[N+](=O)[O-]
IC50 [4]: > 100 µM (inactive) | IC50 [5]: 9.42 µM (active) | IC50 (Caspase-3): 36 µM (active) | EC50 (Streptococcus): > 150 µM (not active) | EC50 (Streptokinase A): 22.3 µM (active) | EC50 [7]: 30.9 µM (active) | IC50 [6]: 10.1 µM (active)

CCCNC(=O)c1sc2c(c1C(=O)Nc1ccccn1)CCCC2
IC50 [8]: 14.5 µM (inactive) | IC50 (Steroidogenic factor 1): 8.39 µM (active) | IC50 [9]: 35.9 µM (inactive)
